Each structure is given as a SMILES string. Where only a bound is given, the exact number is not on record here.

T1 sequence (P08191 22-179 limits assumed): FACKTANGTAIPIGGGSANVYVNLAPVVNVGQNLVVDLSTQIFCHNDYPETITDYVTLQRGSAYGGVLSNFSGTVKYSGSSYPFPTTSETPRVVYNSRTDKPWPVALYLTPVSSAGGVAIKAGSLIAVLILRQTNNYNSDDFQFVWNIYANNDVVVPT

One assay addresses T1, carbohydrate recognition domain of the protein FimH (M1-T179) (Escherichia coli, UniProt P08191).
T1 construct: domain of the protein FimH (M1-T179) with an uncleavable C-terminus 6-His tag; made in house; host or cells: E. coli (pET21b plasmid)
In words: Thermal Shift Assay. The format is binding, E. coli. To be noted: 5.6 μM protein, 56 μM ligand; DMSO control as reference; ± standard error of the mean (number of repeats). The method, then: The carbohydrate recognition domain of the protein FimH (M1-T179) with an uncleavable C-terminus 6-His tag is cloned in a pET21b plasmid and expressed in E. coli and purified to homogeneity. The thermal stabilization of the protein upon ligand binding is measured in a 96-well format on a ViiA™ 7 (Life Technologies, Carlsbad, Calif.) RT-PCR instrument. The assay is conducted in duplicate in 20 mM Tris pH 7.4 and 150 mM NaCl at a final concentration of 5.6 μM and 56 μM for protein and ligand, respectively. An environmentally-sensitive dye (Applied Biosystems Protein Thermal Shift™ Dye (P/N 4461141)) is added to each well to a final ratio of 1:1000. Plates are spun at 1000×g for 1 minute and incubated at room temperature for 10 minutes. Thermal stability of protein with and without ligand is measured from 45° C. to 85° C. at a scan rate of 0.05° C./sec. The resulting data is analyzed using Protein Thermal Shift™ Software (version 1.1) with DMSO control used as reference.
As for `Cc1cc(Br)ccc1O[C@H]1O[C@H](CO)[C@@H](O)[C@H](O)[C@@H]1F` [Example 1, (2R,3S,4S,5S,6R)-6-(4-bromo-2-methyl-phenoxy)-5-fluoro-2-(hydroxymethyl)tetrahydropyran-3,4-diol], the “Delta Thermal melt” value was 3 (1) ° C. For `OC[C@H]1O[C@H](Oc2ccc(Br)cc2C(F)(F)F)[C@@H](F)[C@@H](O)[C@@H]1O` [Example 3, (2R,3S,4S,5S,6R)-6-[4-bromo-2-(trifluoromethyl)phenoxy]-5-fluoro-2-(hydroxymethyl)tetrahydropyran-3,4-diol], the “Delta Thermal melt” value is recorded as 3.2 (1) ° C. Take `COc1cc(Br)ccc1O[C@H]1O[C@H](CO)[C@@H](O)[C@H](O)[C@@H]1F` [Example 5, (2R,3S,4S,5S,6R)-6-(4-bromo-2-methoxy-phenoxy)-5-fluoro-2-(hydroxymethyl)tetrahydropyran-3,4-diol]: the “Delta Thermal melt” value is 1.8 (1) ° C.

For another assay, the system named is bacterial strain LF82 binding to the glycoprotein BSA-(Mannose)3. Kind of assay: Bacterial Binding Assay (BBA). Type of assay: cell-based, Escherichia coli. The settings on record: read-out: Bacterial Binding Assay IC50. An outline of the steps: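 Luciferase-tagged E. coli LF82 grown overnight at 37° C without shaking, then added at 2×10^8 bacteria/mL (10^7 per well) to wells coated with 0.5-2 μg/mL BSA-(Man)3 and blocked with 2% BSA. Compound in 0.2% BSA/D-PBS; binding 40-75 min at room temperature. Washed; bound bacteria read by luciferase luminescence; IC50.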
For the compound `CC(C)c1cc(-c2ccc(O[C@H]3O[C@H](CO)[C@@H](O)[C@H](O)[C@]3(C)O)c(C(C)C)c2)ccc1O[C@H]1O[C@H](CO)[C@@H](O)[C@H](O)[C@]1(C)O` [Example 115, (2R,3S,4S,5S,6R)-6-(hydroxymethyl)-2-[2-isopropyl-4-[3-isopropyl-4-[(2R,3S,4S,5S,6R)-3,4,5-trihydroxy-6-(hydroxymethyl)-3-methyl-tetrahydropyran-2-yl]oxy-phenyl]phenoxy]-3-methyl-tetrahydropyran-3,4,5-triol], the IC50 stood at 4 ± 0.6 nM. With `Cc1cc(-c2ccc(-c3ccc(O[C@H]4O[C@H](CO)[C@@H](O)[C@H](O)[C@]4(C)O)c(C)c3)cc2)ccc1O[C@H]1O[C@H](CO)[C@@H](O)[C@H](O)[C@]1(C)O` [Example 116, (2R,3S,4S,5S,6R)-6-(hydroxymethyl)-3-methyl-2-[2-methyl-4-[4-[3-methyl-4-[(2R,3S,4S,5S,6R)-3,4,5-trihydroxy-6-(hydroxymethyl)-3-methyl-tetrahydropyran-2-yl]oxy-phenyl]phenyl]phenoxy]tetrahydropyran-3,4,5-triol], the IC50 is 30 ± 13 nM. For `Cc1cc(C#Cc2ccc(O[C@H]3O[C@H](CO)[C@@H](O)[C@H](O)[C@]3(C)O)c(C)c2)ccc1O[C@H]1O[C@H](CO)[C@@H](O)[C@H](O)[C@]1(C)O` [Example 117, (2R,3S,4S,5S,6R)-6-(hydroxymethyl)-3-methyl-2-[2-methyl-4-[2-[3-methyl-4-[(2R,3S,4S,5S,6R)-3,4,5-trihydroxy-6-(hydroxymethyl)-3-methyl-tetrahydropyran-2-yl]oxy-phenyl]ethynyl]phenoxy]tetrahydropyran-3,4,5-triol], the IC50 was found to be 15 ± 8 nM.

In the case of `Cc1cc(-c2cc(-c3ccc(O[C@H]4O[C@H](CO)[C@@H](O)[C@H](O)[C@]4(C)O)c(C)c3)cc(-c3ccc(O[C@H]4O[C@H](CO)[C@@H](O)[C@H](O)[C@]4(C)O)c(C)c3)c2)ccc1O[C@H]1O[C@H](CO)[C@@H](O)[C@H](O)[C@]1(C)O` [Example 118, (2R,3S,4S,5S,6R)-2-[4-[3,5-bis[3-methyl-4-[(2R,3S,4S,5S,6R)-3,4,5-trihydroxy-6-(hydroxymethyl)-3-methyl-tetrahydropyran-2-yl]oxy-phenyl]phenyl]-2-methyl-phenoxy]-6-(hydroxymethyl)-3-methyl-tetrahydropyran-3,4,5-triol], the IC50 stood at 2 ± 0.7 nM. On to `Cc1cc(-c2cncc(-c3ccc(O[C@H]4O[C@H](CO)[C@@H](O)[C@H](O)[C@]4(C)O)c(C)c3)c2)ccc1O[C@H]1O[C@H](CO)[C@@H](O)[C@H](O)[C@]1(C)O` [Example 119, (2R,3S,4S,5S,6R)-6-(hydroxymethyl)-3-methyl-2-[2-methyl-4-[5-[3-methyl-4-[(2R,3S,4S,5S,6R)-3,4,5-trihydroxy-6-(hydroxymethyl)-3-methyl-tetrahydropyran-2-yl]oxy-phenyl]-3-pyridyl]phenoxy]tetrahydropyran-3,4,5-triol], for which the concentration for half-maximal inhibition (IC50) worked out at 0.6 ± 0.2 nM. Consider `Cc1cc(-c2cccc(-c3ccc(O[C@H]4O[C@H](CO)[C@@H](O)[C@H](O)[C@]4(C)O)c(C)c3)c2)ccc1O[C@H]1O[C@H](CO)[C@@H](O)[C@H](O)[C@]1(C)O` [Example 120, (2R,3S,4S,5S,6R)-6-(hydroxymethyl)-3-methyl-2-[2-methyl-4-[3-[3-methyl-4-[(2R,3S,4S,5S,6R)-3,4,5-trihydroxy-6-(hydroxymethyl)-3-methyl-tetrahydropyran-2-yl]oxy-phenyl]phenyl]phenoxy]tetrahydro-pyran-3,4,5-triol], for which the IC50 is 3 ± 2 nM.

With `Cc1cc(-c2cccc(-c3ccc(O[C@H]4O[C@H](CO)[C@@H](O)[C@H](O)[C@]4(C)O)c(C)c3)n2)ccc1O[C@H]1O[C@H](CO)[C@@H](O)[C@H](O)[C@]1(C)O` [Example 121, (2R,3S,4S,5S,6R)-6-(hydroxymethyl)-3-methyl-2-[2-methyl-4-[6-[3-methyl-4-[(2R,3S,4S,5S,6R)-3,4,5-trihydroxy-6-(hydroxymethyl)-3-methyl-tetrahydropyran-2-yl]oxy-phenyl]-2-pyridyl]phenoxy]tetrahydropyran-3,4,5-triol], the concentration for half-maximal inhibition (IC50) is 6 ± 0.8 nM. As for `Cc1cc(-c2ccnc(-c3ccc(O[C@H]4O[C@H](CO)[C@@H](O)[C@H](O)[C@]4(C)O)c(C)c3)c2)ccc1O[C@H]1O[C@H](CO)[C@@H](O)[C@H](O)[C@]1(C)O` [Example 122, (2R,3S,4S,5S,6R)-6-(hydroxymethyl)-3-methyl-2-[2-methyl-4-[2-[3-methyl-4-[(2R,3S,4S,5S,6R)-3,4,5-trihydroxy-6-(hydroxymethyl)-3-methyl-tetrahydropyran-2-yl]oxy-phenyl]-4-pyridyl]phenoxy]tetrahydropyran-3,4,5-triol], the IC50 was determined as 0.6 ± 0.3 nM. For the compound `Cc1cc(C2CC2c2ccc(O[C@H]3O[C@H](CO)[C@@H](O)[C@H](O)[C@]3(C)O)c(C)c2)ccc1O[C@H]1O[C@H](CO)[C@@H](O)[C@H](O)[C@]1(C)O` (stereo partly drawn) [Example 123, (2R,3S,4S,5S,6R)-6-(hydroxymethyl)-3-methyl-2-[2-methyl-4-[2-[3-methyl-4-[(2R,3S,4S,5S,6R)-3,4,5-trihydroxy-6-(hydroxymethyl)-3-methyl-tetrahydropyran-2-yl]oxy-phenyl]cyclopropyl]phenoxy]tetrahydropyran-3,4,5-triol], the IC50 came to 1 ± 0.5 nM.

Take `OC[C@H]1O[C@@]2(CCc3cc(O)ccc3O2)[C@@H](O)[C@@H](O)[C@@H]1O` [Example 124, (2R,3′S,4′S,5′S,6′R)-6′-(hydroxymethyl)spiro[chromane-2,2′-tetrahydropyran]-3′,4′,5′,6-tetrol]: the IC50 worked out at 650 ± 550 nM.

For the compound `OC[C@H]1O[C@@]2(CCc3cc(-c4ccc5c(c4)CC[C@]4(O5)O[C@H](CO)[C@@H](O)[C@H](O)[C@@H]4O)ccc3O2)[C@@H](O)[C@@H](O)[C@@H]1O` [Example 126, (2R,3′S,4′S,5′S,6′R)-6′-(hydroxymethyl)-6-[(2R,3′S,4′S,5′S,6′R)-3′,4′,5′-trihydroxy-6′-(hydroxymethyl)spiro[chromane-2,2′-tetrahydropyran]-6-yl]spiro[chromane-2,2′-tetrahydropyran]-3′,4′,5′-triol], the IC50 worked out at 8 nM. Take `OC[C@H]1O[C@@]2(CCc3cc(-c4cncc(-c5ccc6c(c5)CC[C@]5(O6)O[C@H](CO)[C@@H](O)[C@H](O)[C@@H]5O)c4)ccc3O2)[C@@H](O)[C@@H](O)[C@@H]1O` [Example 129, (2R,3′S,4′S,5′S,6′R)-6′-(hydroxymethyl)-6-[5-[(2R,3′S,4′S,5′S,6′R)-3′,4′,5′-trihydroxy-6′-(hydroxymethyl)spiro[chromane-2,2′-tetrahydropyran]-6-yl]-3-pyridyl]spiro[chromane-2,2′-tetrahydropyran]-3′,4′,5′-triol]: the half-maximal inhibitory concentration (IC50) was 11 ± 6 nM.

Turning to `CNC(=O)c1cccc(-c2ccc(O[C@H]3O[C@H](CO)[C@@H](O)[C@](C)(O)[C@@H]3O)c(C)c2)c1` [compound 25], the half-maximal inhibitory concentration (IC50) is 68 ± 18 nM. `CNC(=O)c1cccc(-c2ccc(O[C@H]3O[C@](C)(CO)[C@@H](O)[C@H](O)[C@@H]3O)c(C)c2)c1` [compound 26]: the IC50 is 2370 ± 544 nM. In the case of `CNC(=O)c1cccc(-c2ccc(O[C@H]3O[C@H]([C@H](C)O)[C@@H](O)[C@H](O)[C@@H]3O)c(C)c2)c1` [compound 27], the half-inhibitory concentration (IC50) came to 165 ± 49 nM. `C[C@H](O)[C@H]1O[C@H](Oc2ccc(N3CCc4cc([N+](=O)[O-])ccc43)cc2Cl)[C@@H](O)[C@@H](O)[C@@H]1O` [compound 28]: the IC50 is 1300 nM. In the case of `CNC(=O)c1cccc(-c2ccc(O[C@H]3O[C@H]([C@@H](C)O)[C@@H](O)[C@H](O)[C@@H]3O)c(C)c2)c1` [compound 29], the IC50 was above 10000 nM. Consider `COc1ccc2c(c1)CC[C@]1(O2)O[C@H](CO)[C@@H](O)[C@H](O)[C@@H]1O` [compound 32], for which the IC50 is 333 ± 100 nM. Turning to `CNC(=O)c1cccc(-c2ccc3c(c2)CC[C@]2(O3)O[C@H](CO)[C@@H](O)[C@H](O)[C@@H]2O)c1` [compound 33], the half-maximal inhibitory concentration (IC50) is 27 ± 8 nM. Still for that read-out and setting: the same measure for `CNC(=O)c1ccc(CCO[C@@]2(C)O[C@H](CO)[C@@H](O)[C@H](O)[C@@H]2O)cc1` [compound 35]: 1800 ± 300 nM.

The term IC50 denotes the concentration that gives 50% inhibition.

For the origin of these results see US9890176B2, “Mannose derivatives for treating bacterial infections” (Vertex Pharmaceuticals Incorporated, priority 2013, dated 2018).
